# Measurements from patent publication US5587479A, “Basic derivatives of glutamic acid and aspartic acid as gastrin or cholecystokinin antagonists” (priority 1992, dated 1996).
# Like-named read-outs stand apart in the source and are kept apart here.
# How the values were obtained:
# [1] = tested on: guinea-pig ureters; test: Antispastic activity in vitro: spontaneous motility of guinea-pig ureters; settings: for IC50: Cavia porcellus
# From the text: The isotonic contractions were detected by means of a force transducer and recorded. […] A given concentration of the product under test was then introduced into the bath and left in contact with the prepared specimen for five minutes, after which the ureter was washed until its own spontaneous activity was re-established.
# [2] = target: T1, central CCK-B receptors (guinea pig cortical membrane) (Cavia porcellus, UniProt H0VZC5); test: Inhibition of binding of (3-H)[N-methyl-N-leucine]CCK-8 to guinea pig cortical membranes (anti-CCK-B)
# T1 construct: Cerebral cortices of white male guinea pigs were therefore used; from tissue; host or cells: guinea pig cerebral cortex membranes
# T1 sequence (H0VZC5 1-426): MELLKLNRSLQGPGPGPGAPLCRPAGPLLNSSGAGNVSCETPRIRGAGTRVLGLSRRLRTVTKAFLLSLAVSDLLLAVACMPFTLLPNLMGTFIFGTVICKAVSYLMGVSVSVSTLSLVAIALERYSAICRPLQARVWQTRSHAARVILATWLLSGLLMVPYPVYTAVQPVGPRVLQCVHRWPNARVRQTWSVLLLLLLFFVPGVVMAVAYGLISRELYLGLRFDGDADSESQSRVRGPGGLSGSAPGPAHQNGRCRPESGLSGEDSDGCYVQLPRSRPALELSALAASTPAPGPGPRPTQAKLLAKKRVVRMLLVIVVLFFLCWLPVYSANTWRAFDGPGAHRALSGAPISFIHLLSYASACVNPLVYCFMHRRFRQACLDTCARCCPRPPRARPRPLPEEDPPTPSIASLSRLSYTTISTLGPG
# Description: Cerebral cortices of white male guinea pigs were therefore used, according to the method mentioned above, so as to obtain a membrane content/ml corresponding to about 300 mcg of proteins/mi. The membranes were incubated together with the radioactive tracer and the compounds under test for 150 minutes at 25° C. After the supernatant liquid had been discarded, the radioactivity associated with the pellet was determined with a liquid scintillator.
# [3] = tested on: mouse; test: Anxiolytic activity in the mouse, Black and White Box test; format: in vivo; settings: for TOTAL MOV.: five minutes; for anxiolytic activity in the Black and White Box test (in words): IP
# Description: In order to confirm the hypothesis that the potent activity of some of the compounds of the invention against central CCK-B may be correlated with a possible anxiolytic activity, this potential activity was evaluated in the mouse with the use of the "Black and White Box test". This experimental model, which was carried out according to Costall et al. [Pharm. Biochem. Behav. 32 (1989), 777-785] used a box with dimensions of 45×21×21 (h) cm. divided into two compartments which communicated with each other by means of a 13×5 cm hole. The smaller compartment (1/3 of the total area) had black walls, whereas the larger had transparent walls and was illuminated by a lamp which was placed 20 cm above the box and supplied light at 20 W. Under the floor was an activity meter which registered the movements performed by the animal in the individual compartments. The experiment was started by placing the animal in the centre of the illuminated box; as well at its movements, the time which the animal spent in the dark and in the light and the number of times it moved between the 2 compartments were recorded for five minutes. In general, a control animal tended preferably to stay in the dark compartment where it felt better protected from an unusual enviromental situation which put it in a state of anxiety. In this experimental model ( see the reference cited above), a compound having anxiolytic activity decreased the % of movements into the dark in comparison with the total movements, increased the movements between the two light-dark compartments, and increased the % of the total time time spent in the light. The results obtained are given in Table 5 below in which the activities obtained with the compound 1 (the rectus series ) and its enantiomer 2 (sinister) tested in comparison with diazepam and the CCK-B antagonist L365-260.
# [4] = force of the contractions, five minutes contact, 37° C., read-out: IC50 (force), inhibition of the spontaneous motility of guinea-pig ureters in vitro
# [5] = frequency of the contractions, five minutes contact, 37° C., read-out: IC50 (frequency), inhibition of the spontaneous motility of guinea-pig ureters in vitro
# [6] = IC50, inhibition of binding of (3-H)[N-methyl-N-leucine]CCK-8 to the guinea pig cortical membrane, 150 minutes at 25° C.
# [7] = read-out: IC50 (force), inhibition of the spontaneous motility of guinea-pig ureters in vitro
# [8] = read-out: IC50 (frequency), inhibition of the spontaneous motility of guinea-pig ureters in vitro
smiles,measurement,setting,value
CCCCCN(CCCCC)C(=O)[C@H](CCC(=O)NCCN1CCOCC1)NC(=O)c1ccc(C)c(C)c1 [Compound 46],activity on guinea-pig ureters (in words),[1],extremely active
same,IC50,[1]; [4],1.6 µg/mL
same,IC50,[1]; [5],1.5 µg/mL
same,activity relative to Verapamil,[1]; guinea-pig ureters,about twice
same,times more active than Papaverine and Flavexate,[1]; guinea-pig ureters,about 20 times
CN1CCN(CCNC(=O)CC[C@@H](NC(=O)c2cc(Cl)cc(Cl)c2)C(=O)N2CCC3(CCCC3)CC2)CC1 [Compound 6],IC50,[2]; [6],3.3 µM
CCCCN(CCCC)C(=O)C(CCC(=O)NCCN(C)C)NC(=O)c1ccc(C)c(C)c1 (stereo not drawn) [Compound 25],IC50,[1]; [4],36 µg/mL
CCCCN(CCCC)C(=O)C(CCC(=O)NCCCN(C)C)NC(=O)c1ccc(C)c(C)c1 (stereo not drawn) [Compound 27],IC50,[1]; [4],33 µg/mL
CCCCCN(CCCCC)C(=O)C(CCC(=O)NCCN1CCOCC1)NC(=O)c1ccc(C(C)C)cc1 (stereo not drawn) [Compound 36],activity on guinea-pig ureters (in words),[1],extremely active
same,IC50,[1]; [4],2 µg/mL
same,IC50,[1]; [5],1.5 µg/mL
same,IC50,[2]; [6],81.3 µM
"CCCCCN(CCCCC)C(=O)C(CCC(=O)NCCN1CCOCC1)NC(=O)c1ccc(C)c(C)c1 (racemic) [Compound 44, (RS) 1-[4'-(ethylenamino)morpholinyl]-1-oxo-4-[(3,4-dimethylbenzoyl)-amino]-5-(dipentylamino) -5-oxopentane]",activity on guinea-pig ureters (in words),[1],extremely active
same,IC50,[1]; [4],5 µg/mL
same,IC50,[1]; [5],4 µg/mL
same,IC50,[2]; [6],65.4 µM
CCCCCN(CCCCC)C(=O)C(CCC(=O)NCCN1CCOCC1)NC(=O)c1ccc(Cl)c(Cl)c1 (stereo not drawn) [Compound 37],IC50,[1]; [4],8 µg/mL
same,IC50,[1]; [5],7 µg/mL
CCCCCN(CCCCC)C(=O)C(CCC(=O)NCCCN1CCOCC1)NC(=O)c1ccc(C)c(C)c1 (stereo not drawn) [Compound 47],IC50,[1]; [4],12 µg/mL
same,IC50,[1]; [5],15 µg/mL
CN(C)CCNC(=O)CC[C@@H](NC(=O)c1cc(Cl)cc(Cl)c1)C(=O)N1CCC2(CCCC2)CC1 [Compound 4],IC50,[1]; [5],121 µg/mL
same,IC50,[2]; [6],12.5 µM
CCCCN(CCCC)C(=O)C(CCC(=O)NCC1CCCN1CC)NC(=O)c1ccc(C)c(C)c1 (stereo not drawn) [Compound 31],IC50,[1]; [4],23 µg/mL
CN1CCN(C(=O)CC[C@@H](NC(=O)c2cccc(Cl)c2)C(=O)N2CCC3(CCCC3)CC2)CC1 [Compound 7],IC50,[2]; [6],6.5 µM
CCCCCN(CCCCC)C(=O)C(CCC(=O)NCCN1CCCCC1)NC(=O)c1ccc(C)c(C)c1 (stereo not drawn) [Compound 55],IC50,[1]; [4],11 µg/mL
same,IC50,[1]; [5],18 µg/mL
same,IC50,[2]; [6],> 100 µM
CCCCCN(CCCCC)C(=O)C(CCC(=O)NCCCN1CCN(Cc2ccccc2)CC1)NC(=O)c1ccc(C)c(C)c1 (stereo not drawn) [Compound 51],IC50,[1]; [4],100 µg/mL
same,IC50,[1]; [5],100 µg/mL
"CSCC[C@H](NC(=O)[C@H](Cc1c[nH]c2ccccc12)NC(=O)CCNC(=O)OC(C)(C)C)C(=O)N[C@@H](CC(=O)O)C(=O)N[C@@H](Cc1ccccc1)C(N)=O [pentagastrin, reference compound]",IC50,[2],0.003 µM
CCCCCN(CCCCC)C(=O)[C@@H](CCC(=O)NCCN1CCOCC1)NC(=O)c1ccc(C)c(C)c1 [Compound 45],IC50,[1]; [4],8 µg/mL
same,IC50,[1]; [5],6 µg/mL
CCCCCN(CCCCC)C(=O)C(CCC(=O)NCCCN(C)C)NC(=O)c1ccc(C)c(C)c1 (stereo not drawn) [Compound 41],IC50,[1]; [4],20 µg/mL
same,IC50,[1]; [5],28 µg/mL
"Cc1c(-c2ccccc2)oc2c(C(=O)OCCN3CCCCC3)cccc2c1=O [Flavoxate, reference compound]",IC50,[1]; [4],29 µg/mL
CCCCCN(CCCOC)C(=O)C(CCC(=O)NCCN1CCOCC1)NC(=O)c1ccc(C)c(C)c1 (stereo not drawn) [Compound 64],IC50,[1]; [4],59 µg/mL
CCCCCN(CCCCC)C(=O)C(CCC(=O)NCCN1CCOCC1)NC(=O)c1ccc(C)cc1 (stereo not drawn) [Compound 33],IC50,[1]; [4],18 µg/mL
same,IC50,[1]; [5],16 µg/mL
CCCCN(CCCC)C(=O)C(CCC(=O)NCCCN1CCOCC1)NC(=O)c1ccc(C)c(C)c1 (stereo not drawn) [Compound 29],IC50,[1]; [4],18 µg/mL
same,IC50,[1]; [5],17 µg/mL
"COc1ccc(CCN(C)CCCC(C#N)(c2ccc(OC)c(OC)c2)C(C)C)cc1OC (stereo not drawn) [Verapamil, reference compound]",IC50,[1]; [7],3 µg/mL
same,IC50,[1]; [8],2.2 µg/mL
"CN1C(=O)CN=C(c2ccccc2)c2cc(Cl)ccc21 [DIAZEPAM, diazepam, reference compound]",LIGHT TIME (%) TOTAL TIME,[3]; 1 mg/kg IP,29.3%
same,LIGHT TIME (%) TOTAL TIME: % EFF.VS CONTROL,[3]; 1 mg/kg IP,19%
same,LIGHT-DARK MOVEMENTS,[3]; 1 mg/kg IP,19.9
same,LIGHT-DARK MOVEMENTS: % EFF. VS CONTROL,[3]; 1 mg/kg IP,+37.2%
same,MOV. DARK (%) TOTAL MOV.,[3]; 1 mg/kg IP,53%
same,MOV. DARK (%) TOTAL MOV.: % EFF. VS CONTROL,[3]; 1 mg/kg IP,-5%
same,TOTAL MOV.,[3]; 1 mg/kg IP,508
same,LIGHT TIME (%) TOTAL TIME,[3]; 3 mg/kg IP,33.6%
same,LIGHT TIME (%) TOTAL TIME: % EFF.VS CONTROL,[3]; 3 mg/kg IP,36.7%
same,LIGHT-DARK MOVEMENTS,[3]; 3 mg/kg IP,22.3
same,LIGHT-DARK MOVEMENTS: % EFF. VS CONTROL,[3]; 3 mg/kg IP,+53.8%
same,MOV. DARK (%) TOTAL MOV.,[3]; 3 mg/kg IP,52%
same,MOV. DARK (%) TOTAL MOV.: % EFF. VS CONTROL,[3]; 3 mg/kg IP,-7%
same,TOTAL MOV.,[3]; 3 mg/kg IP,539
same,anxiolytic activity in the Black and White Box test (in words),[3],active in a dose-dependent manner for all the parameters tested
CCCCCN(CCCCC)C(=O)C(CCC(=O)NCCN(CC)CC)NC(=O)c1ccc(C)c(C)c1 (stereo not drawn) [Compound 42],IC50,[1]; [4],18 µg/mL
same,IC50,[1]; [5],22 µg/mL
"Cc1cccc(NC(=O)N[C@@H]2N=C(c3ccccc3)c3ccccc3N(C)C2=O)c1 [Compound L-365-260, reference compound]",LIGHT TIME (%) TOTAL TIME,[3]; 0.01 mg/kg IP,27.0%
same,LIGHT TIME (%) TOTAL TIME: % EFF.VS CONTROL,[3]; 0.01 mg/kg IP,0%
same,LIGHT-DARK MOVEMENTS,[3]; 0.01 mg/kg IP,14.2
same,LIGHT-DARK MOVEMENTS: % EFF. VS CONTROL,[3]; 0.01 mg/kg IP,-12%
same,MOV. DARK (%) TOTAL MOV.,[3]; 0.01 mg/kg IP,57%
same,MOV. DARK (%) TOTAL MOV.: % EFF. VS CONTROL,[3]; 0.01 mg/kg IP,12%
same,TOTAL MOV.,[3]; 0.01 mg/kg IP,417
same,LIGHT TIME (%) TOTAL TIME,[3]; 0.1 mg/kg IP,31.8%
same,LIGHT TIME (%) TOTAL TIME: % EFF.VS CONTROL,[3]; 0.1 mg/kg IP,18%
same,LIGHT-DARK MOVEMENTS,[3]; 0.1 mg/kg IP,13.3
same,LIGHT-DARK MOVEMENTS: % EFF. VS CONTROL,[3]; 0.1 mg/kg IP,-18%
same,MOV. DARK (%) TOTAL MOV.,[3]; 0.1 mg/kg IP,54%
same,MOV. DARK (%) TOTAL MOV.: % EFF. VS CONTROL,[3]; 0.1 mg/kg IP,18%
same,TOTAL MOV.,[3]; 0.1 mg/kg IP,446
same,anxiolytic activity in the Black and White Box test (in words),[3],active at a dose of 0.1 mg/kg but only for the parameter which relates to the increase in the time spent in the light
CCCCCN(CCCCC)C(=O)C(CCC(=O)NCCN1CCOCC1)NC(=O)c1ccccc1 (stereo not drawn) [Compound 32],IC50,[1]; [5],22 µg/mL
"COc1ccc(Cc2nccc3cc(OC)c(OC)cc23)cc1OC [Papaverine, reference compound]",IC50,[1]; [7],23 µg/mL
same,IC50,[1]; [8],27 µg/mL
CCCCCN(CCCCC)C(=O)C(CCC(=O)NCC1CCCN1CC)NC(=O)c1ccc(C)c(C)c1 (stereo not drawn) [Compound 58],IC50,[1]; [4],14 µg/mL
same,IC50,[1]; [5],19 µg/mL
CCCCCN(CCCCC)C(=O)C(CCC(=O)NCCN1CCOCC1)NC(=O)c1ccc(C#N)cc1 (stereo not drawn) [Compound 34],IC50,[1]; [4],12 µg/mL
same,IC50,[1]; [5],12 µg/mL
CCCCN(CCCC)C(=O)C(CCC(=O)NCCN1CCOCC1)NC(=O)c1ccc(C)c(C)c1 (stereo not drawn) [Compound 28],IC50,[1]; [4],18 µg/mL
same,IC50,[1]; [5],43 µg/mL
CCCCCN(CCCCC)C(=O)C(CCC(=O)NCCN1CCOCC1)NC(=O)c1ccc(OC)c(OC)c1 (stereo not drawn) [Compound 35],IC50,[1]; [4],18 µg/mL
same,IC50,[1]; [5],16 µg/mL
CCCCCN(CCCCC)C(=O)C(CCC(=O)NCCN(C)C)NC(=O)c1ccc(C)c(C)c1 (stereo not drawn) [Compound 40],IC50,[1]; [4],27 µg/mL
same,IC50,[1]; [5],44 µg/mL
